Results as given in PMC8903829 (eLife, 2022).
Where “and” joins values, the source holds several entries; their conditions need not be identical. Equal entries are not always repeated. Where two headings read alike, the source gives them in different places.

Tests used:
[1] = Bioanalytical assessment of plasma and brain concentrations after mouse DC-MES assay; type: in vivo; settings: mouse, po, WT mice
Procedure: (§1) Approximately 0.5 mL of blood was collected from each mouse at the end of the assay via cardiac puncture under deep anesthesia. The blood samples were collected in a syringe and transferred to tubes containing EDTA. Blood was stored at 4 °C until centrifuged within 30 min of collection. Plasma was harvested and placed on dry ice and stored in a freezer set to maintain a temperature of –70°C to –80°C until analysis. Brains were harvested immediately after blood collection and placed on dry ice prior to storage in a freezer set to maintain a temperature of –70°C to –80°C until analysis.
(§2) Extraction of plasma samples was carried out by protein precipitation using acetonitrile. Plasma samples (50 µL) were mixed with 50 µL of internal standard (IS) solution in water followed by addition of 10 µL of concentrated ortho-phosphoric acid and 200 µL of acetonitrile. Samples were vortexed for 30 seconds, centrifuged at 13,000 rpm for 20 min, decanted in to a 96-well plate, and further centrifuged at 4000 rpm for 20 min. The samples were analyzed by UHPLC-ESI-MS/MS as described below.
(§3) Prior to extraction, pre-weighed whole brains were homogenized in 1:1 acetonitrile/water (v/v) (4 mL per mouse brain) using an IKA T18 ULTRA-TURRAX Homogenizer at the setting of 4 for approximately 2 min. The homogenate was centrifuged at 13,000 rpm for 20 min and 50 µL of the supernatant were treated exactly as described above for plasma samples. […]
(§4) Samples were analyzed by UHPLC-ESI MS/MS using a TQ-5500 Sciex triple quadrupole mass spectrometer equipped with a Shimadzu Nexera UHPLC pump and auto-sampler system using an ACE C18 PFP, 2.50 × 50 mm, 1.7 µm particle size column and gradient elution consisting of solvent A (0.1% formic acid in water) and solvent B (0.1% formic acid in acetonitrile) starting at 20% B from 0 min to 0.4 min and then increased to 100% B from 0.4 min to 0.6 min. At 2.0 min, the mobile phase composition was switched back to […] for 1 min. The flow rate used throughout the experiment was […]. […] The UHPLC-ESI MS/MS system was controlled by Analyst 1.6.
(§5) Sample concentrations were determined using a linear calibration function, weighted 1 /X, generated by the regression of analyte to IS peak area ratios in the standard samples to their respective concentrations. Acceptance criteria for the analytical run required that the back calculated values of the standards and the QC samples fell within ±20% of their nominal values, except for the lowest standard or lower limit of quantitation (LLOQ), for which the acceptance criterion was ±25%. At least 6 out of 12 standard points had to show back-calculated values within ±20% of their nominal concentrations for the calibration to be accepted. At least three QC samples, one at each level, had to show back-calculated values within ±20% of their nominal concentrations for the whole sample batch to be valid.

[2] = Bioanalytical assessment of plasma and brain concentrations after 6 Hz assay; type: in vivo, mouse; settings: for Mean [Plasma] / Mean [Brain] / concentration at 2 hr: Scn8a mice; for concentration at 2 hr: mouse, po
Procedure: as §1, §2, §3, §4, §5

[3] = 6 mg/kg PO every 12 hr, day 7, 2 hr after 13th dose, 6 mg/kg
[4] = 100 mg/kg PO single dose, after assay 2 hr post dose, 100 mg/kg

`Cc1cc(S(=O)(=O)Nc2cscn2)c(F)cc1N(C)[C@H]1CCN(Cc2ccccc2)C1` [NBI-921352] showed a concentration at 2 h ([1]; brain, 10 mg/kg, 10 mg/kg PO single dose, 2 h, read-out: Mean [Brain]) of 51.9 nM, a concentration at 2 h ([1]; brain, 100 mg/kg, 100 mg/kg PO single dose, 2 h, read-out: Mean [Brain]) of 646 nM and a concentration at 2 h ([1]; brain, 200 mg/kg, 200 mg/kg PO single dose, 2 h, read-out: Mean [Brain]) of 3880 nM. For the same molecule, the concentration at 2 h ([1]; plasma, 3 mg/kg, 3 mg/kg PO every 12 hr, day 7, 2 h after 13th dose, read-out: Mean [Plasma]) was 17.7 nM, the concentration at 2 h ([1]; plasma, 3 mg/kg, 3 mg/kg PO single dose, 2 h, read-out: Mean [Plasma]) was 11.2 nM and the concentration at 2 h ([1]; plasma, 5 mg/kg, 5 mg/kg PO every 12 hr, day 7, 2 h after 13th dose, read-out: Mean [Plasma]) was 43 nM. The concentration at 2 h ([1]; plasma, 5 mg/kg, 5 mg/kg PO single dose, 2 h, read-out: Mean [Plasma]) was 36.8 nM, the concentration at 2 h ([1]; plasma, 10 mg/kg, 10 mg/kg PO every 12 hr, day 7, 2 h after 13th dose, read-out: Mean [Plasma]) was 151 nM and the concentration at 2 h ([1]; plasma, 10 mg/kg, 10 mg/kg PO single dose, 2 h, read-out: Mean [Plasma]) was 94.2 nM. For the same molecule, the concentration at 2 h ([1]; plasma, 100 mg/kg, 100 mg/kg PO single dose, 2 h, read-out: Mean [Plasma]) was 3330 nM, the concentration at 2 h ([1]; plasma, 200 mg/kg, 200 mg/kg PO single dose, 2 h, read-out: Mean [Plasma]) was 34700 nM and the “Mean [Plasma]” value ([2]; 3 mg/kg PO single dose, after assay 2 hr post dose, 3 mg/kg) was 0.003985 µM. For the same molecule, the “Mean [Brain]” value [2, 3] was 0.02201 µM and 0.01923 µM, the “Mean [Plasma]” value [2, 3] was 0.01663 µM and 0.02029 µM and the “Mean [Plasma]” value ([2]; 10 mg/kg PO single dose, after assay 2 hr post dose, 10 mg/kg) was 0.01541 µM. For the same molecule, the “Mean [Brain]” value ([2]; 30 mg/kg PO single dose, after assay 2 hr post dose, 30 mg/kg) was 0.133 µM and 0.1224 µM and 0.09287 µM and 0.1253 µM, the “Mean [Brain]” value [2, 4] was 0.3467 µM and the “Mean [Plasma]” value [2, 4] was 0.5385 µM. It also gave a concentration at 2 hr ([2]; Scn8a^N1768D/+ (heterozygous gain-of-function knock-in line), brain, 30 mg/kg, 30 mg/kg PO single dose, after assay 2 hr post dose, read-out: Mean [Brain]) of 96.6 nM, a concentration at 2 hr ([2]; Scn8a^N1768D/+ (heterozygous gain-of-function knock-in line), brain, 100 mg/kg, 100 mg/kg PO single dose, after assay 2 hr post dose, read-out: Mean [Brain]) of 357 nM and a concentration at 2 hr ([2]; Scn8a^N1768D/+ (heterozygous gain-of-function knock-in line), plasma, 3 mg/kg, 3 mg/kg PO single dose, after assay 2 hr post dose, read-out: Mean [Plasma]) of 3.45 nM. For the same molecule, the concentration at 2 hr ([2]; Scn8a^N1768D/+ (heterozygous gain-of-function knock-in line), plasma, 10 mg/kg, 10 mg/kg PO single dose, after assay 2 hr post dose, read-out: Mean [Plasma]) was 9.56 nM, the concentration at 2 hr ([2]; Scn8a^N1768D/+ (heterozygous gain-of-function knock-in line), plasma, 100 mg/kg, 100 mg/kg PO single dose, after assay 2 hr post dose, read-out: Mean [Plasma]) was 717 nM and the concentration at 2 hr ([2]; Scn8a^N1768D/+, brain, 2 mg/kg, 2 mg/kg PO every 12 hr, day 7, 2 hr after 13th dose, read-out: Mean [Brain]) was 10.5 nM. For the same molecule, the concentration at 2 hr ([2]; Scn8a^N1768D/+, brain, 2 mg/kg, 2 mg/kg PO single dose, after assay 2 hr post dose, read-out: Mean [Brain]) was 8.02 nM, the concentration at 2 hr ([2]; Scn8a^N1768D/+, brain, 6 mg/kg, 6 mg/kg PO every 12 hr, day 7, 2 hr after 13th dose, read-out: Mean [Brain]) was 28.8 nM and the concentration at 2 hr ([2]; Scn8a^N1768D/+, brain, 200 mg/kg, 200 mg/kg PO single dose, after assay 2 hr post dose, read-out: Mean [Brain]) was 3850 nM. For the same molecule, the concentration at 2 hr ([2]; Scn8a^N1768D/+, brain, 300 mg/kg, 300 mg/kg PO single dose, after assay 2 hr post dose, read-out: Mean [Brain]) was 6940 nM, the concentration at 2 hr ([2]; Scn8a^N1768D/+, plasma, 2 mg/kg, 2 mg/kg PO every 12 hr, day 7, 2 hr after 13th dose, read-out: Mean [Plasma]) was 2.95 nM and the concentration at 2 hr ([2]; Scn8a^N1768D/+, plasma, 2 mg/kg, 2 mg/kg PO single dose, after assay 2 hr post dose, read-out: Mean [Plasma]) was 1.08 nM. The concentration at 2 hr ([2]; Scn8a^N1768D/+, plasma, 6 mg/kg, 6 mg/kg PO every 12 hr, day 7, 2 hr after 13th dose, read-out: Mean [Plasma]) was 13.2 nM, the concentration at 2 hr ([2]; Scn8a^N1768D/+, plasma, 200 mg/kg, 200 mg/kg PO single dose, after assay 2 hr post dose, read-out: Mean [Plasma]) was 12600 nM and the concentration at 2 hr ([2]; Scn8a^N1768D/+, plasma, 300 mg/kg, 300 mg/kg PO single dose, after assay 2 hr post dose, read-out: Mean [Plasma]) was 31500 nM. The “accumulation in the plasma or tissue on repeated dosing” value ([2]; every 12 hr for 13 doses, mice and rats) was “did not appreciably accumulate”.
